Reference: ChEMBL document CHEMBL4152352, “Discovery of a non-toxic [1,2,4]triazolo[1,5-a]pyrimidin-7-one (WS-10) that modulates ABCB1-mediated multidrug resistance (MDR)” (Bioorg Med Chem, 2018)
pIC50: −log10 of the molar value. The source made the active and inactive calls. The calls are words filed in the database; no cut-off is given here.

How the values were obtained:
[1] = target: T1, ATP-dependent translocase ABCB1 (Homo sapiens, UniProt P08183); test: Inhibition of ABCB1 in human SW620/Ad300 cells assessed as potentiation of paclitaxel-induced cytotoxicity after 72 hrs by MTT assay; format: cell-based
T1 sequence (P08183 whole entry): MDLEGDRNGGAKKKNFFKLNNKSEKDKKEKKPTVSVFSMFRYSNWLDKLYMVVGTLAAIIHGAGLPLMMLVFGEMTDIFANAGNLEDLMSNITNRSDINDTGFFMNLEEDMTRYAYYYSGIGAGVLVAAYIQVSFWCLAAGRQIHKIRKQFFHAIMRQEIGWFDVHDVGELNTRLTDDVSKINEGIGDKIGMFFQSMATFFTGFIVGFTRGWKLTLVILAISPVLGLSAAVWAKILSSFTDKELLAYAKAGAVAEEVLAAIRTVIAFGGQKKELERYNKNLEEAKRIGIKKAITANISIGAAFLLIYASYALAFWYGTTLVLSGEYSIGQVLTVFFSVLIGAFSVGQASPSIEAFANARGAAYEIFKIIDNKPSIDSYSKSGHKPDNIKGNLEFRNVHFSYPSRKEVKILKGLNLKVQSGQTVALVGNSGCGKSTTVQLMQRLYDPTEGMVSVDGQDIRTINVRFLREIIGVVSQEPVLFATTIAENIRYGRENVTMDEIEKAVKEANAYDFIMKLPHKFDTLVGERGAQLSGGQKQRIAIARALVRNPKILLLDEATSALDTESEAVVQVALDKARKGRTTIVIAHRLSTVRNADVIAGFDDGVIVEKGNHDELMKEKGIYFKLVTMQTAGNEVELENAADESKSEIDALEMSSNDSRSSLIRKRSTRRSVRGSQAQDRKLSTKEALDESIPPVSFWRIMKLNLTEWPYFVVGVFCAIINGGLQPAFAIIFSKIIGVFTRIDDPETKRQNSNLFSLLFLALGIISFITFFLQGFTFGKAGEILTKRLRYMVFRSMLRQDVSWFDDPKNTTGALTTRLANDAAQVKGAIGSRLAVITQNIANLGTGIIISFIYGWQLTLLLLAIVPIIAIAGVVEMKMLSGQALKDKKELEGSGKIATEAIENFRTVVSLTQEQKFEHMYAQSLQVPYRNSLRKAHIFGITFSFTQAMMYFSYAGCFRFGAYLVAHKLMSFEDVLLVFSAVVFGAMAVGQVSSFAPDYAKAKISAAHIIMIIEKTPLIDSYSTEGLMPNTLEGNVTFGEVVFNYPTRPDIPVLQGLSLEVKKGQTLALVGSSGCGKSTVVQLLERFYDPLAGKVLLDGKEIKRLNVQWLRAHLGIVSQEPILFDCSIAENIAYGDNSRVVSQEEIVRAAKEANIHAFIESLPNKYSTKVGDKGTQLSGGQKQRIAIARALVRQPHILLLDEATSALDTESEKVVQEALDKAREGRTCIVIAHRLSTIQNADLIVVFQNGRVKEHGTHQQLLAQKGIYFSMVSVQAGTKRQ

[2] = target: T1, ATP-dependent translocase ABCB1; test: Inhibition of ABCB1 in human SW620/Ad300 cells assessed as increase in intracellular paclitaxel accumulation at 10 to 20 uM preincubated for 72 hrs followed by paclitaxel addition and measured after 3 hrs by UPLC method; format: cell-based
[3] = system: HEK-293T; test: Potentiation of cisplatin-induced cytotoxicity against HEK293T cells assessed as change in cisplatin IC50 at 10 uM after 72 hrs by MTT assay relative to control; format: cell-based; conditions: human
[4] = system: SW-620; test: Potentiation of cisplatin-induced cytotoxicity against human SW620 cells assessed as change in cisplatin IC50 at 10 uM after 72 hrs by MTT assay relative to control; format: cell-based; conditions: sw-620, 72 h
[5] = Ratio of paclitaxel IC50 for cytotoxicity against HEK293T cells in absence of test compound to paclitaxel IC50 for HEK293T cells expressing ABCB1 in presence of 4 uM test compound; format: functional, Homo sapiens
[6] = system: MGC-803; test: Cytotoxicity against human MGC803 cells assessed as decrease in cell survival at 10 to 20 uM after 72 hrs by MTT assay; format: cell-based; conditions: mgc-803, 72 h
[7] = system: HEK-293T; test: Potentiation of doxorubicin-induced cytotoxicity against HEK293T cells assessed as change in doxorubicin IC50 at 4 uM after 72 hrs by MTT assay relative to control; format: cell-based; conditions: human
[8] = system: TE-1; test: Cytotoxicity against human TE1 cells assessed as decrease in cell survival at 10 to 20 uM after 72 hrs by MTT assay; format: cell-based; conditions: te-1, 72 h
[9] = system: HEK-293T; test: Potentiation of cisplatin-induced cytotoxicity against HEK293T cells assessed as change in cisplatin IC50 at 20 uM after 72 hrs by MTT assay relative to control; format: cell-based; conditions: human
[10] = Ratio of doxorubicin IC50 for cytotoxicity against human SW620 cells in absence of test compound to doxorubicin IC50 for human SW620/Ad300 cells in presence to 20 uM test compound; format: functional
[11] = system: HEK-293T; test: Potentiation of paclitaxel-induced cytotoxicity against HEK293T cells assessed as change in paclitaxel IC50 at 10 uM after 72 hrs by MTT assay relative to control; format: cell-based; conditions: human
[12] = Ratio of doxorubicin IC50 for cytotoxicity against human SW620 cells in absence of test compound to doxorubicin IC50 for human SW620/Ad300 cells in presence to 4 uM test compound; format: functional
[13] = system: SW-620; test: Potentiation of paclitaxel-induced cytotoxicity against human SW620 cells assessed as change in paclitaxel IC50 at 10 uM after 72 hrs by MTT assay relative to control; format: cell-based; conditions: sw-620, 72 h
[14] = Ratio of doxorubicin IC50 for cytotoxicity against HEK293T cells in absence of test compound to doxorubicin IC50 for HEK293T cells expressing ABCB1 in presence of 10 uM test compound; format: functional, Homo sapiens
[15] = system: SW620/AD300; test: Cytotoxicity against human SW620/AD300 cells assessed as decrease in cell survival after 72 hrs by MTT assay; format: cell-based; conditions: SW620/AD300, 72 h
[16] = system: SGC-7901; test: Cytotoxicity against human SGC7901 cells assessed as decrease in cell survival at 10 to 20 uM after 72 hrs by MTT assay; format: cell-based; conditions: sgc-7901, 72 h
[17] = Ratio of doxorubicin IC50 for cytotoxicity against HEK293T cells in absence of test compound to doxorubicin IC50 for HEK293T cells expressing ABCB1 in presence of 4 uM test compound; format: functional, Homo sapiens
[18] = Ratio of doxorubicin IC50 for cytotoxicity against HEK293T cells in absence of test compound to doxorubicin IC50 for HEK293T cells expressing ABCB1 in presence of 20 uM test compound; format: functional, Homo sapiens
[19] = Ratio of cisplatin IC50 for cytotoxicity against human SW620 cells in absence of test compound to cisplatin IC50 for human SW620/Ad300 cells in presence to 20 uM test compound; format: functional
[20] = Ratio of paclitaxel IC50 for cytotoxicity against HEK293T cells in absence of test compound to paclitaxel IC50 for HEK293T cells expressing ABCB1 in presence of 10 uM test compound; format: functional, Homo sapiens
[21] = Ratio of cisplatin IC50 for cytotoxicity against HEK293T cells in absence of test compound to cisplatin IC50 for HEK293T cells expressing ABCB1 in presence of 10 uM test compound; format: functional, Homo sapiens
[22] = system: HEK-293T; test: Potentiation of paclitaxel-induced cytotoxicity against HEK293T cells assessed as change in paclitaxel IC50 at 20 uM after 72 hrs by MTT assay relative to control; format: cell-based; conditions: human
[23] = system: HEK-293T; test: Potentiation of paclitaxel-induced cytotoxicity against HEK293T cells assessed as change in paclitaxel IC50 at 4 uM after 72 hrs by MTT assay relative to control; format: cell-based; conditions: human
[24] = Ratio of cisplatin IC50 for cytotoxicity against HEK293T cells in absence of test compound to cisplatin IC50 for HEK293T cells expressing ABCB1 in presence of 20 uM test compound; format: functional, Homo sapiens
[25] = Ratio of paclitaxel IC50 for cytotoxicity against HEK293T cells in absence of test compound to paclitaxel IC50 for HEK293T cells expressing ABCB1 in presence of 20 uM test compound; format: functional, Homo sapiens
[26] = target: T1, ATP-dependent translocase ABCB1; test: Stabilization of ABCB1 in human SW620/Ad300 cells at 10 uM after 30 mins by cellular thermal shift assay; format: cell-based; conditions: 0.5 h
[27] = system: SW-620; test: Potentiation of cisplatin-induced cytotoxicity against human SW620 cells assessed as change in cisplatin IC50 at 20 uM after 72 hrs by MTT assay relative to control; format: cell-based; conditions: sw-620, 72 h
[28] = system: ECa-109 cell line; test: Cytotoxicity against human EC109 cells assessed as decrease in cell survival at 10 to 20 uM after 72 hrs by MTT assay; format: cell-based; conditions: eca-109, 72 h
[29] = system: SW-620; test: Potentiation of doxorubicin-induced cytotoxicity against human SW620 cells assessed as change in doxorubicin IC50 at 10 uM after 72 hrs by MTT assay relative to control; format: cell-based; conditions: sw-620, 72 h
[30] = system: SW-620; test: Cytotoxicity against human SW620 cells assessed as decrease in cell survival after 72 hrs by MTT assay; format: cell-based; conditions: SW-620, 72 h
[31] = system: SW620/AD300; test: Effect on expression of ABCB1 protein in human SW620/Ad300 cells at 20 uM after 24 to 96 hrs by Western blot method; format: functional, cell-based
[32] = Ratio of cisplatin IC50 for cytotoxicity against HEK293T cells in absence of test compound to cisplatin IC50 for HEK293T cells expressing ABCB1 in presence of 4 uM test compound; format: functional, Homo sapiens
[33] = system: SW-620; test: Potentiation of doxorubicin-induced cytotoxicity against human SW620 cells assessed as change in doxorubicin IC50 at 4 uM after 72 hrs by MTT assay relative to control; format: cell-based; conditions: sw-620, 72 h
[34] = Ratio of paclitaxel IC50 for cytotoxicity against human SW620 cells in absence of test compound to paclitaxel IC50 for human SW620/Ad300 cells in presence to 4 uM test compound; format: functional
[35] = system: HEK-293T; test: Potentiation of doxorubicin-induced cytotoxicity against HEK293T cells assessed as change in doxorubicin IC50 at 10 uM after 72 hrs by MTT assay relative to control; format: cell-based; conditions: human
[36] = Ratio of paclitaxel IC50 for cytotoxicity against human SW620 cells in absence of test compound to paclitaxel IC50 for human SW620/Ad300 cells in presence to 20 uM test compound; format: functional
[37] = Ratio of doxorubicin IC50 for cytotoxicity against human SW620 cells in absence of test compound to doxorubicin IC50 for human SW620/Ad300 cells in presence to 10 uM test compound; format: functional
[38] = system: SW-620; test: Potentiation of cisplatin-induced cytotoxicity against human SW620 cells assessed as change in cisplatin IC50 at 4 uM after 72 hrs by MTT assay relative to control; format: cell-based; conditions: sw-620, 72 h
[39] = Ratio of cisplatin IC50 for cytotoxicity against human SW620 cells in absence of test compound to cisplatin IC50 for human SW620/Ad300 cells in presence to 4 uM test compound; format: functional
[40] = Ratio of cisplatin IC50 for cytotoxicity against human SW620 cells in absence of test compound to cisplatin IC50 for human SW620/Ad300 cells in presence to 10 uM test compound; format: functional
[41] = target: T1, ATP-dependent translocase ABCB1; test: Inhibition of ABCB1 in human SW620/Ad300 cells assessed as potentiation of doxorubicin-induced cytotoxicity after 72 hrs by MTT assay; format: cell-based
[42] = system: A549; test: Cytotoxicity against human A549 cells assessed as decrease in cell survival at 10 to 20 uM after 72 hrs by MTT assay; format: cell-based; conditions: a549, 72 h
[43] = system: HEK-293T; test: Potentiation of doxorubicin-induced cytotoxicity against HEK293T cells assessed as change in doxorubicin IC50 at 20 uM after 72 hrs by MTT assay relative to control; format: cell-based; conditions: human
[44] = system: SW620/AD300; test: Effect on expression of ABCB1 protein in human SW620/Ad300 cells at 10 to 20 uM by Western blot method; format: functional, cell-based
[45] = system: SW-620; test: Potentiation of paclitaxel-induced cytotoxicity against human SW620 cells assessed as change in paclitaxel IC50 at 4 uM after 72 hrs by MTT assay relative to control; format: cell-based; conditions: sw-620, 72 h
[46] = Ratio of paclitaxel IC50 for cytotoxicity against human SW620 cells in absence of test compound to paclitaxel IC50 for human SW620/Ad300 cells in presence to 10 uM test compound; format: functional
[47] = system: HEK-293T; test: Potentiation of cisplatin-induced cytotoxicity against HEK293T cells assessed as change in cisplatin IC50 at 4 uM after 72 hrs by MTT assay relative to control; format: cell-based; conditions: human
[48] = system: SW-620; test: Potentiation of paclitaxel-induced cytotoxicity against human SW620 cells assessed as change in paclitaxel IC50 at 20 uM after 72 hrs by MTT assay relative to control; format: cell-based; conditions: sw-620, 72 h
[49] = target: T1, ATP-dependent translocase ABCB1; test: Inhibition of ABCB1 (unknown origin) expressed in HEK293T cells assessed as potentiation of doxorubicin-induced cytotoxicity after 72 hrs by MTT assay; format: cell-based
[50] = system: SW-620; test: Potentiation of doxorubicin-induced cytotoxicity against human SW620 cells assessed as change in doxorubicin IC50 at 20 uM after 72 hrs by MTT assay relative to control; format: cell-based; conditions: sw-620, 72 h

inhibition (INH) [2]: Active
Activity [26]: Active
Structure (SMILES): O=c1cc(-c2ccccc2)[nH]c2nc(SCc3nc4ccccc4[nH]3)nn12
inhibition (INH) [1]: Dose-dependent effect
fold change (FC) [3]: 1.04
fold change (FC) [4]: 1.07
Ratio IC50 [5]: 15.69
Activity [6]: Non-Toxic
fold change (FC) [7]: 1.07
Activity [8]: Non-Toxic
fold change (FC) [9]: 0.98
Ratio IC50 [10]: 3.77
fold change (FC) [11]: 0.87
Ratio IC50 [12]: 4.32
fold change (FC) [13]: 1.2
Ratio IC50 [14]: 5.36
pIC50 [15]: 3.97
Activity [16]: Non-Toxic
Ratio IC50 [17]: 4.1
Ratio IC50 [18]: 4.05
Ratio IC50 [19]: 1.01
Ratio IC50 [20]: 27.8
Ratio IC50 [21]: 1.05
fold change (FC) [22]: 0.83
fold change (FC) [23]: 0.84
Ratio IC50 [24]: 0.91
Ratio IC50 [25]: 19.37
fold change (FC) [27]: 0.97
Activity [28]: Non-Toxic
fold change (FC) [29]: 1.17
pIC50 [30]: 4.07
Activity [31]: inactive
Ratio IC50 [32]: 0.91
fold change (FC) [33]: 1.18
Ratio IC50 [34]: 156.74
fold change (FC) [35]: 1.14
Ratio IC50 [36]: 125.8
Ratio IC50 [37]: 6.02
fold change (FC) [38]: 1.1
Ratio IC50 [39]: 0.98
Ratio IC50 [40]: 0.96
inhibition (INH) [41]: Dose-dependent effect
Activity [42]: Non-Toxic
fold change (FC) [43]: 1.08
Activity [44]: inactive
fold change (FC) [45]: 1.29
Ratio IC50 [46]: 279.2
fold change (FC) [47]: 0.89
fold change (FC) [48]: 0.81
inhibition (INH) [49]: Dose-dependent effect
fold change (FC) [50]: 1.14
